Laboratory results taken from patent US8187823B2, “Modulation of neuroglia-derived BDNF in the treatment and prevention of pain” (Université Laval, priority 2004, dated 2012).

B1: BDNF: brain-derived neurotrophic factor; recombinant human BDNF delivered intrathecally or bath-applied (protein, listed as Homo sapiens)
chain: MTILFLTMVISYFGCMKAAPMKEANIRGQGGLAYPGVRTHGTLESVNGPKAGSRGLTSLADTFEHVIEELLDEDQKVRPNEENNKDADLYTSRVMLSSQVPLEPPLLFLLEEYKNYLDAANMSMRVRRHSDPARRGELSVCDSISEWVTAADKKTAVDMSGGTVTVLEKVPVSKGQLKQYFYETKCNPMGYTKEGCRGIDKRHWNSQCRTTQSYVRALTMDSKKRIGWRFIRIDTSCVCTLTIKRGR

Legend:
[1] = test system: cultured microglia; assay: ELISA of BDNF protein in supernatant of cultured microglia; assay type: cell-based, rat; settings: ATP stimulation; TNP-ATP 10 μM; supernatant 5 hours after treatment
Method: Microglial cultures. Rat primary cultured microglia were prepared under standard conditions as described^2,21. In brief, mixed glial culture was prepared from neonatal Wistar rats and maintained for 10-16 days in DMEM medium with 10% fetal bovine serum. Microglia were separated from the primary culture by gentle shaking of the flask and replated on plastic dishes. The cells were removed from the dish surface using a cell scraper and collected in 100 μl of PBS; subsequently, the cell density of microglia was measured using a cell counter and the volume of PBS adjusted to give a final density of 1000 cells/10 μl. This method produces microglial cultures of >95% purity. For ATP-stimulation, the purified microglia were incubated with ATP (50 μM) for 1 hour. […]

[2] = test system: rats with peripheral nerve injury; settings: literature (ref. 2), acting on P2X receptors in microglia; cited from earlier work
[3] = test system: LI neurons; assay: Eanion of LI neurons in spinal slices from PNI rats with bath-applied agents; assay type: cell-based, rat; settings: TNP-ATP 1 μM bath-applied, slices from allodynic rats two weeks after PNI
Method: (§1) Peripheral nerve injury was induced by surgically implanting a polyethylene cuff (2 mm in length, inner diameter 0.7 mm) around the sciatic nerve of adult male Sprague-Dawley rats^3,17. For sham surgery, which was used as a control, animals had all surgical procedures exempt that the cuff was not implanted. The 50% withdrawal threshold, or 50% paw withdrawal threshold, to mechanical stimulation was assessed^3,18. […] In animals with peripheral nerve injury induced in this model, there was microglial activation in the spinal cord ipsilateral to the nerve cuff, as indicated by increased labeling for the microglial activation marker OX-42 (FIGS. 5B and 5C).
(§2) Slice preparation. Parasagittal slices (300-350 μm) of spinal cord were prepared from adult (>50 days old) male rats as previously described^31. Slices were continually superfused (2-3 ml min^−1) with artificial cerebrospinal fluid (ACSF) containing (in mM): 126 NaCl, 26 NaHCO3, 10 glucose, 2.5 KCl, 2 CaCl2, 2 MgCl2, 1.25 NaH2PO4 (bubbled with 95% O2/5% CO2, pH ˜7.4).
Recordings. For perforated-patch recordings, the pipette tip was filled with a solution containing (in mM): 130 potassium methyl sulphate (KMeSO4), 5 CsCl, 2 MgCl2, 11 BAPTA, 1 CaCl2, 4 ATP, 0.4 GTP, 10 HEPES (˜pH 7.4). […]

[4] = test system: LI neurons; assay: Eanion of LI neurons in spinal slices from naïve rats with bath-applied BDNF; assay type: cell-based, rat; settings: BDNF 50 ng/ml, >90 min
Method: as §2
Recordings. For perforated-patch recordings, the pipette tip was filled with a solution containing (in mM): 130 potassium methyl sulphate (KMeSO4), 5 CsCl, 2 MgCl2, 11 BAPTA, 1 CaCl2, 4 ATP, 0.4 GTP, 10 HEPES (˜pH 7.4). The pipette was back-filled with this same solution supplemented with 25 μg ml^−1 gramicidin D [gramicidin stock was at 10 mg ml^−1 in dimethylsulphoxide (DMSO)]. Recordings in this mode were selected when access resistance was stable between 25-45 MΩ. For whole-cell voltage-clamp recordings, pipettes were filled with the above solution lacking gramicidin D. GABA was applied locally for 10-50 ms by pressure ejection through a micro-pipette. Data acquisition and analysis of PSCs were performed as previously described^19; membrane potential measurements were corrected as previously described^20. […] All measurements are given as means±SEM, except where indicated. […]

[5] = test system: naïve rats; assay: Paw withdrawal threshold (WD50) after intrathecal delivery to naïve rats; assay type: in vivo, rat; settings: for paw withdrawal threshold (WD50): intrathecal delivery to naïve/intact rats
Method: as §1
Microglial cultures. Rat primary cultured microglia were prepared under standard conditions as described^2,21. In brief, mixed glial culture was prepared from neonatal Wistar rats and maintained for 10-16 days in DMEM medium with 10% fetal bovine serum. Microglia were separated from the primary culture by gentle shaking of the flask and replated on plastic dishes. The cells were removed from the dish surface using a cell scraper and collected in 100 μl of PBS; subsequently, the cell density of microglia was measured using a cell counter and the volume of PBS adjusted to give a final density of 1000 cells/10 μl. This method produces microglial cultures of >95% purity. For ATP-stimulation, the purified microglia were incubated with ATP (50 μM) for 1 hour.
Intrathecal injections and ELISA. At least three days before drug administration, rats were anaesthetized with sodium pentobarbital (65 mg kg^−1), and a lumbar spinal catheter (PE-10 polyethylene tube) was inserted into the intrathecal space^22. On recovery from surgery, lower-body paralysis was induced through intrathecal lidocaine (2%, 30 μl) injection to confirm proper catheter localization. […] At the doses used, none of the compounds produced motor disturbances or sedation, as assessed by grasping, righting and placing reflexes and behavioural observations^23. […]

Molecule	release of BDNF from microglia in culture [1]	nerve injury-induced tactile allodynia [2]	Eanion of LI neurons [3] [mV]	Eanion of LI neurons vs control untreated slices [4]	paw withdrawal threshold (WD50) [5]	paw withdrawal threshold (WD50) ([5]; listed as recombinant human BDNF)	time to significant decrease in WD50 ([5]; recombinant human BDNF 20 μg intrathecal, intact rats) [h]
Nc1ncnc2c1ncn2[C@@H]1O[C@H](COP(=O)(O)OP(=O)(O)OP(=O)(O)O)[C@@H](O)[C@H]1O [ATP]	caused release of BDNF						
TNP-ATP	blocked	reverse nerve injury-induced tactile allodynia	−59.3±1.8				
B1				significantly less negative	decrease in paw withdrawal threshold	significant and transient decrease in the WD50	≤ 1
